Laboratory results published in patent publication US5395840A, “Heterocyclically substituted phenyl-cyclohexane-carboxylic acid derivatives” (Bayer Aktiengesellschaft, priority 1993, dated 1995).

How the values were obtained:
[1] = system: contractions induced by AII (isolated rabbit aorta rings); test: Inhibition of the vascular contraction in isolated rabbit aorta rings in vitro, contractions induced by angiotensin II; assay type: cell-based; conditions: Oryctolagus cuniculus, based on the 3rd = submaximal agonist concentration, read-out: IC50 against contractions induced by: AII
Procedure: Rabbits of either sex are stunned by a blow to the back of the head and bled out, or in some cases anaesthetized with Nembutal (about 60-80 mg/kg i.v.) and sacrificed by opening the thorax. The thoracic aorta is removed, freed from adhering connective tissue, divided into ring segments 1.5 mm wide and individually transferred under an initial loading of about 3.5 g to 10 ml organ baths containing Krebs-Henseleit nutrient solution, aerated with 95% O2 /5% CO2 and temperature-controlled at 37° C., of the following composition: 119 mmol/l of NaCl; 2.5 mmol/l of CaCl2 ×2H2 O; 1.2 mmol/l of KH2 PO4; 10 mmol/l of glucose; 4.8 mmol/l of KCl; 1.4 mmol/l of MgSO4 ×7H2 O and 25 mmol/l of NaHCO3.
The contractions are determined isometrically by means of Statham UC2 cells via bridge amplifiers (ifd Mulheim or DSM Aalen) and digitalized by means of A/D converters (System 570, Keithley Munich) and assessed. The agonist dose response curves (DRCs) are plotted hourly. With each DRC, 3 or 4 individual concentrations are applied to the baths =at a 4 min interval. […]
The height of the 3rd DRC, in a normal case, is used as a reference quantity for the assessment of the test substance to be investigated in further runs, which substance is applied to the baths in the following DRCs in each case in increasing dose at the start of the incubation period. […]

[2] = molecular target: T1, Angiotensin II Receptor (Bos taurus, UniProt P25104); test: Interaction with the angiotensin II receptor in membrane fractions of the adrenal gland cortex (bovine), 3H-angiotensin II binding; conditions: 3H-angiotensin II (3-5 nM), bovine adrenal gland cortex membranes, 60 min at room temperature, pH 7.2
T1 construct: Adrenal gland cortices from cattle (AGCs), which have been freshly removed and carefully freed from gland medulla; from tissue; host or cells: bovine adrenal gland cortex, partially purified membrane fractions
T1 sequence (P25104 1-359): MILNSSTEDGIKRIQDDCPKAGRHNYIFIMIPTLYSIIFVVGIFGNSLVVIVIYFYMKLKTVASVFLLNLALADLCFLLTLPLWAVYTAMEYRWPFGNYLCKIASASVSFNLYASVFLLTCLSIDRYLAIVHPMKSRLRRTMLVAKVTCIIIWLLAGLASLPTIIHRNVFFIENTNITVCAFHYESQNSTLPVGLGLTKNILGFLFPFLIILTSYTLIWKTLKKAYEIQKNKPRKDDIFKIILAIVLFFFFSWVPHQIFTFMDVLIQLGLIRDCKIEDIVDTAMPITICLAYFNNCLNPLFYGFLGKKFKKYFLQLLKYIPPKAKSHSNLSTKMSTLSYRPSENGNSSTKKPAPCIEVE
Procedure: Adrenal gland cortices from cattle (AGCs), which have been freshly removed and carefully freed from gland medulla, are comminuted in sucrose solution (0.32M) with the aid of an Ultra-Turrax (Janke & Kunkel, Staufen i.B.) to give a coarse membrane homogenate and partially purified to give membrane fractions in two centrifugation steps.
The receptor binding investigations are carried out on partially purified membrane fractions of bovine AGC using radioactive angiotensin II in an assay volume of 0.25 ml, which specifically contains the partially purified membranes (50-80 μg), ^3 H-angiotensin II (3-5 nM), test buffer solution (50 mM Tris, pH 7.2, 5 mM MgCl2) and the substances to be investigated. After an incubation period of 60 min at room temperature, the unbound radioactivity of the samples is separated by means of moistened glass fiber filters (Whatman GF/C) and the bound radioactivity is measured […] in a scintillation cocktail after washing the protein with ice-cold buffer solution (50 mM Tris/HCl, pH 7.4, 5% PEG 6000). The raw data were analysed using computer programs to give Ki or IC50 values (Ki : IC50 values corrected for the radioactivity used; IC50 values: concentration at which the substance to be investigated causes a 50% inhibition of the specific binding of the radioligand).

[3] = system: smooth muscle cells; test: Inhibition of the proliferation of smooth muscle cells (3H-thymidine incorporation); assay type: cell-based; conditions: rat aortic smooth muscle cells, stimulated by 10% FCS
Procedure: To determine the antiproliferative action of the compounds, smooth muscle cells are used which are obtained from the aortas of rats by the media explant technique [R. Ross, J. Cell. Biol. 50., 172, 1971]. The cells are inoculated into suitable culture dishes, as a rule 96-hole plates, and cultured at 37° C. in 5% CO2 for 2-3 days in medium 199 containing,7.5% FCS and 7.59% NCS, 2 mM L-glutamine and 15 mM HEPES, pH 7.4. The cells are then synchronized for 2-3 days by withdrawal of serum and then stimulated into growth using serum or other factors. Test compounds are simultaneously added. After 16-20 hours, 1 μCi ^3 H-thymidine is added and after a further 4 hours the incorporation of this substance into the TCA-precipitable DNA of the cells is determined. To determine the IC50 values, the active compound concentration is calculated which, on sequential dilution of the active compound, causes semi-maximum inhibition of the thymidine incorporation produced by 10% FCS.

Compound: CC(C)(C)OC(=O)[C@@H]1CCCC[C@H]1c1ccc(Cn2c(-c3ccccc3)nc3cccnc32)cc1 (relative stereo) [Example 9]
- IC50 [1]: 260 nM
- Ki [2]: 47 nM

Compound: O=C(N[C@H](CO)c1ccccc1)C1CCCCC1c1ccc(Cn2c(C3CC3)nc3cccnc32)cc1 (single isomer, unassigned) [Example 16]
- IC50 [3]: 410 nM

Compound: O=C(N[C@H](CO)c1ccccc1)C1CCCCC1c1ccc(Cn2c(C3CC3)nc3cccnc32)cc1 (single isomer, unassigned) [Example 17]
- IC50 [3]: 2 nM

Compound: NC(=O)C(NC(=O)C1CCCCC1c1ccc(Cn2c(C3CC3)nc3cccnc32)cc1)c1ccccc1 (single isomer, unassigned) [Example 21]
- IC50 ([3]; Rattus norvegicus): 7 nM

Compound: O=C(N[C@H](CO)c1ccccc1)C1CCCCC1c1ccc(Cn2c(-c3ccccc3)nc3cccnc32)cc1 (stereo partly shown) [Example 25]
- IC50 ([3]; Rattus norvegicus): 26 nM

Compound: CCCCc1nc2cc(Br)cnc2n1Cc1ccc(C2CCCCC2C(=O)N[C@H](CO)c2ccccc2)cc1 (stereo partly shown) [Example 29]
- IC50 ([3]; Rattus norvegicus): 4 nM

Compound: CCCCc1nc2ccccc2n1Cc1ccc(C2CCCCC2C(=O)N[C@H](CO)c2ccccc2)cc1 (stereo partly shown) [Example 30]
- IC50 [1]: 220 nM
- Ki [2]: 19 nM

Compound: CCCCc1nc2ccccc2n1Cc1ccc(C2CCCCC2C(=O)N[C@H](CO)c2ccccc2)cc1 (stereo partly shown) [Example 31]
- IC50 ([3]; Rattus norvegicus): 3 nM
